{
  "source": "patent US8507219B2",
  "about": "“Method of treating inflammation with statins” (MUSC Foundation for Research Development, priority 1997, dated 2013)",
  "key": {"[1]": {"system": "cultured skin fibroblasts of X-ALD", "assay": "VLCFA ratios (C26:0/C22:0, C24:0/C22:0) in X-ALD skin fibroblasts", "format": "cell-based, human", "settings": "about 15 days of treatment"}, "[2]": {"system": "IL-1β production in rat primary microglia", "assay": "LPS-induced IL-1β production (ELISA) in rat primary microglia", "format": "cell-based", "protocol": "(§1) Determination of TNF-α and IL-1β in culture supernatants Cells were stimulated with LPS in serum-free media for 24 h in the presence or absence of forskolin or rolipram, and concentrations of TNF-α and IL-1β were measured in culture supernatants by using high-sensitivity enzyme-linked immunosorbent assay (R&D Systems, USA) according to the manufacturer's instructions."}, "[3]": {"system": "control human skin fibroblasts", "assay": "β-oxidation of lignoceric acid in control human skin fibroblasts", "format": "cell-based", "settings": "72 h"}, "iNOS": {"system": "iNOS", "assay": "Expression of iNOS protein (immunoblot) and mRNA (Northern) in rat primary astrocytes", "format": "cell-based", "settings": "10 μM forskolin or 0.2 μM H-89 15 min before cytokines / LPS", "protocol": "Immunoblot analysis for iNOS Following 24 h incubation in the presence or absence of stimuli by different cytokines or LPS, macrophages were scraped off, washed with Hank's buffer, and homogenized in 50 mM Tris-HCl (pH 7.4) containing protease inhibitors ([…] PMSF, 5 μg/ml aprotinin, 5 μg/ml pepstatin A, and 5 μg/ml leupeptin). After electrophoresis the proteins were transferred onto a nitrocellulose membrane, and the iNOS band was visualized by immunoblotting with antibodies against mouse macrophage iNOS and [^125I]-labeled protein A (Singh et al., 1988).\nRNA isolation, Northern blot analysis, and reverse-transcriptase coupled polymerase chain reaction (RT-PCR) Stimulated peritoneal macrophages were taken out from culture dishes directly by adding Ultraspec-II RNA reagent (Biotecx Laboratories Inc.) and total RNA was isolated according to the manufacturer's protocol. For northern blot analyses, 20 μg of total RNA was electrophoresed on 1.2% denaturing formaldehyde-agarose gels, electrotransferred to Hybond-Nylon Membrane (Amersham) and hybridized at 68° C. with ^32P-labeled cDNA probe using Express Hyb hybridization solution (Clontech) as described by the manufacturer. […]; After hybridization filters were washed two to three times in solution I (2×SSC, 0.05% SDS) for 1 h at room temperature followed by solution II (0.1×SSC, 0.1% SDS) at 50° C. for another hour. The membranes were then dried and exposed to X-ray film (Kodak). The same filters were stripped and rehybridized with probes for GAPDH. The relative mRNA content for iNOS was measured after scanning the bands with a Biorad (Model GS-670) imaging densitometer.\nImmunoblot analysis for iNOS Following 24 h incubation in the presence or absence of different stimuli, cells were scraped off, washed with Hank's buffer, and homogenized in 50 mM Tris-HCl (pH 7.4) containing protease inhibitors. After electrophoresis the proteins were transferred onto a nitrocellulose membrane, and the iNOS band was visualized by immunoblotting with antibodies against mouse macrophage iNOS and [^125I]-labeled protein A.\nRNA isolation and Northern blot analysis Cells were taken out from culture dishes directly by adding Ultraspec-II RNA reagent (Biotecx Laboratories Inc.) and total RNA was isolated according to the manufacturer's protocol. For Northern blot analyses, 20 μg of total RNA was electrophoresed on 1.2% denaturing formaldehyde-agarose gels, electrotransferred to Hybond-Nylon Membrane (Amersham) and hybridized at 68° C. with ^32P-labeled cDNA probe using Express Hyb hybridization solution (Clontech) as described by the manufacturer. […]; After hybridization filters were washed two or three times in solution I (2×SSC, 0.05% SDS) for one hour at room temperature followed by solution II (0.1×SSC, 0.1% SDS) at 50° C. for another hour. The membranes were then dried and exposed with X-ray films (Kodak). The same filters were stripped and rehybridized with probes for GAPDH. The relative mRNA content for iNOS was measured after scanning the bands with a Biorad (Model GS-670) imaging densitometer.\nImmunoblot analysis for iNOS After a 24 h incubation in the presence or absence of different stimuli, cells were scraped off, washed with Hank's buffer, and homogenized in 50 mM Tris-HCl (pH 7.4) containing protease inhibitors (1 mM PMSF, 5 μg/ml aprotinin, 5 μg/ml pepstatin A, and 5 μg/ml leupeptin). After electrophoresis the proteins were transferred onto a nitrocellulose membrane, and the iNOS band was visualized by immunoblotting with antibodies against mouse macrophage iNOS and [^125I]-labeled protein A.\nRNA isolation and Northern blot analysis Cells were taken out from culture dishes directly by adding Ultraspec-II RNA reagent (Biotecx Laboratories Inc., Houston, Tex.), and total RNA was isolated according to the manufacturer's protocol. […]"}, "[4]": {"system": "TNF-α production in rat primary microglia", "assay": "LPS-induced TNF-α production (ELISA) in rat primary microglia", "format": "cell-based", "protocol": "as §1"}, "[5]": {"system": "TNF-α production in rat resident macrophages", "assay": "LPS-/IFN-γ-induced TNF-α production (ELISA) in rat macrophages", "format": "cell-based", "protocol": "Resident macrophages cultured in serum-free RPMI 1640 medium received 20 mM NAC or 100 μM PDTC 2 h before the addition of stimuli. When stimuli were used separately their concentrations were: LPS, 1.0 μg/ml; IFN-γ, 200 U/ml, and when they were used together, their concentrations were: LPS, 0.2 μg/ml; IFN-γ, 50 U/ml. Supernatants were collected 24 h after the addition of stimuli to measure TNF-α concentration using ELISA as described."}, "[6]": {"system": "NOS activity in rat resident macrophages", "assay": "NOS activity (L-citrulline from L-arginine) in homogenates of treated rat resident macrophages", "format": "cell-based", "settings": "LPS 1.0 μg/ml, 24 h", "protocol": "NOS activity was measured directly by production of L-[2,3,4,5-^3H]citrulline from L-[2,3,4,5-^3H] arginine (Feinstein et al., 1994a). […] Assays were carried out for 30 to 40 min and the production of L-[2,3,4,5-^3H] citrulline was linear. The reactions were stopped by addition of 800 μl of ice-cold 20 mM HEPES (pH 5.5) followed by addition of 2 ml of Dowex-50W equilibrated in the same buffer. The samples were then centrifuged and the concentration of L-[^3H]citrulline was determined in the supernatant by liquid scintillation counting."}, "[7]": {"system": "ceramide production in rat primary astrocytes", "assay": "Degradation of sphingomyelin to ceramide (DAG kinase assay, HPTLC) in rat primary astrocytes", "format": "cell-based", "settings": "10 mM NAC or 100 μM PDTC 1 h before TNF-α or IL-1β (50 ng/ml), diamide 0.5 mM or aminotriazole 5 mM", "protocol": "Lipid extraction Approximately 1.0×10^6 cells were exposed to different cytokines in the presence or absence of antioxidants for different periods and lipids were extracted according to the methods described by Welsh (1996).\nQuantification of sphingomyelin by HPTLC and densitometry Sphingomyelin was separated from total lipid extracts by HPTLC (LPK-plates from Whatman Labsales, USA) as described (Ganser et al., 1988) for phospholipids with the modification, that the plate was overrun for 30 min during its development and was dried overnight in vacuum desicator. Sphingomyelin was quantitated by densitometric scanning using Imaging Densitometer (Model GS-670; Bio-Rad, USA) and software provided with the instrument by the manufacturer.\nQuantification of ceramide levels by diacylglycerol kinase assay Ceramide content was quantified essentially according to Priess et al. using diacylglycerol (DAG) kinase and [γ-^32P]ATP (Priess et al., 1986). Briefly, dried lipids were solubilized in 20 μl of an octyl β-D-glucoside/cardiolipin solution (7.5% octyl β-D-glucoside, 5 mM cardiolipin in 1 mM DTPA) by sonication in a sonicator bath. […] The labeled ceramide 1-phosphate was resolved with a solvent system consisting of methyl acetate: n-propanol:chloroform:methanol:0.25% KCl in water:acetic-acid (100:100:100:40:36:2). A standard sample of ceramide was phosphorylated under identical conditions and developed in parallel. […] Quantification of ceramide 1-phosphate was carried out by autoradiography and densitometric scanning using Imaging Densitometer (Model GS-670; Bio-Rad, USA). Values are expressed either as arbitrary units (absorbance) or as percent change.\nLipid Extraction Approximately 1.0×10^6 cells were exposed to different cytokines in the presence or absence of antioxidants for different periods, and lipids were extracted according to the methods described by Welsh (1996).\nQuantification of Sphingomyelin by High Performance TLC and Densitometry Sphingomyelin was separated from total lipid extracts by high performance TLC (LHPK plates from Whatman) as described by Ganser et al. (1988) for phospholipids with the following modification: the plate was overrun for 30 min during its development and was dried overnight in vacuum desiccator. Sphingomyelin was quantitated by densitometric scanning using Imaging Densitometer (model GS-670; Bio-Rad), and software was provided with the instrument by the manufacturer.\nQuantification of Ceramide Levels by Diacylglycerol Kinase Assay Ceramide content was quantified essentially according to Priess et al. (1986) using diacylglycerol (DAG) kinase and [γ-^32P]ATP. Briefly, dried lipids were solubilized in 20 μl of an octyl β-D-glucoside/cardiolipin solution (7.5% octyl β-D-glucoside, 5 mM cardiolipin in 1 mM DTPA) by sonication in a sonicator bath. […] The labeled ceramide-1-phosphate was resolved with a solvent system consisting of methyl acetate:n-propyl alcohol:chloroform:methanol, 0.25% KCl in water:acetic acid (100:100:100:40:36:2). A standard sample of ceramide was phosphorylated under identical conditions and developed in parallel. […] Quantification of ceramide-1-phosphate was carried out by autoradiography and densitometric scanning using Imaging Densitometer (model GS-670; Bio-Rad). Values are expressed either as arbitrary units (absorbance) or as percent change."}},
  "note": "“Also recorded” adds a separate entry of the source.",
  "data": [
    {"smiles": "O=S(=O)(NCCNC/C=C/c1ccc(Br)cc1)c1cccc2cnccc12", "note": "[H-89]", "values": [
      {"measurement": "ratios of C26:0/C22:0 and C24:0/C22:0 / level of VLCFA", "setting": "[1]", "value": "blocked the observed effect of forskolin on the level of VLCFA"},
      {"measurement": "LPS-induced production of IL-1β", "setting": "[2]", "value": "stimulated the production of these proinflammatory cytokines in rat primary microglia"},
      {"measurement": "Lignoceric acid β-oxidation", "setting": "[3]; forskolin 4 μM, 1,9 dideoxy forskolin 4 μM, 8-Br-cAMP 50 μM, H-89 1 μM, myristoylated PKI 0.2 μM, Control 565.2 ± 48.3", "value": "405.6 ± 44.1", "unit": "pmol/h/mg protein"},
      {"measurement": "cytokine-induced expression of iNOS", "setting": "iNOS", "value": "stimulated the cytokine-induced expression of iNOS"},
      {"measurement": "LPS-induced production of TNF-α", "setting": "[4]", "value": "stimulated the production of these proinflammatory cytokines in rat primary microglia"}
    ]},
    {"smiles": "CC[C@H](C)C(=O)O[C@H]1CCC=C2C=C[C@H](C)[C@H](CC[C@@H]3C[C@@H](O)CC(=O)O3)[C@H]21", "note": "[Mevastatin]", "values": [
      {"measurement": "Lignoceric acid β-oxidation", "setting": "[3]; Lovastatin 5 μM, Mevastatin 5 μM, NaPA 5 mM, Control 570.2 ± 52.3", "value": "889.6 ± 78.4", "unit": "pmol/h/mg protein"}
    ]},
    {"smiles": "S=C(S)N1CCCC1", "note": "[PDTC, pyrrolidine dithiocarbamate]", "values": [
      {"measurement": "Inhibition (%)", "setting": "[5]; LPS 0.2 μg/ml + IFN-γ 50 U/ml, 20 mM NAC or 100 μM PDTC 2 h before", "value": 96, "unit": "%"},
      {"measurement": "TNF-α", "setting": "[5]; LPS 0.2 μg/ml + IFN-γ 50 U/ml, 20 mM NAC or 100 μM PDTC 2 h before, 24 h", "value": "1.4 ± 0.3", "unit": "ng/24 h/mg protein"},
      {"measurement": "Inhibition (%)", "setting": "[5]; LPS 1.0 μg/ml, 20 mM NAC or 100 μM PDTC 2 h before", "value": 95, "unit": "%"},
      {"measurement": "TNF-α", "setting": "[5]; LPS 1.0 μg/ml, 20 mM NAC or 100 μM PDTC 2 h before, 24 h", "value": "0.9 ± 0.1", "unit": "ng/24 h/mg protein"},
      {"measurement": "TNF-α", "setting": "[5]; antioxidant alone (20 mM NAC or 100 μM PDTC), no stimulus", "value": "0.7 ± 0.2", "unit": "ng/24 h/mg protein"},
      {"measurement": "LPS-induced NOS activity, L-citrulline formation", "setting": "[6]", "value": "inhibited LPS-induced NOS activity"},
      {"measurement": "degradation of sphingomyelin to ceramide / ceramide production", "setting": "[7]", "value": "potentially blocked the decrease in sphingomyelin as well as the increase in ceramide; also recorded: also inhibited cytokine-mediated degradation of SM to ceramide"}
    ]}
  ]
}
